Consider one molecule from patent US20210379062A1, “The use of a H3R inverse agonist for the treatment of excessive daytime sleepiness associated with parkinson's disease (PD)” (Novartis AG, priority 2018, published 2021).

Structures are written as SMILES.

The assay deals with H3 receptor. Nature of the assay: Ex vivo receptor occupancy assay in rat frontal cortex. To be noted: rats; for RO: 10 mg/kg oral. The protocol:
Male Sprague-Dawley rats (from Shanghai SLAC Laboratory Animal CO. LTD) at the age of 5-6 weeks were used. The animals were housed in a temperature and humidity-controlled environment on a 12 h light/dark cycle with food and water available ad libitum. All the procedures were approved by Institutional Animal Care and Use Committee of Chempartner Co., LTD (IACUC Protocol NO: A998HL0076).
Compounds were dissolved in 50 mM citrate buffer (pH 3.5), or saline. The compound was then diluted stepwise to the final concentration with vehicle. Animals were dosed by p.o. or i.v. in 1 ml/kg bodyweight.
At each time point, rats were decapitated immediately. Intact brain was removed, immersed and washed in pre-cooled saline. After drying with filter paper, frontal cortex was dissected with a double-blade with an about 30° angle starting at ⅓ of anterior rat brain (weight of most brain tissues around 70±10 mg). Brain tissue was transferred into a pre-weighed tube with homogenizer beads. The tubes were weighed again and the tissue net weight was recorded. Tissue sampling was done on ice with intervals of 1 min. Then, 50 mM HEPES (Gibco® by Life Technologies) buffer were added (equivalent to 3.75 μl/mg tissue weight) followed by homogenization (frequency 30/sec for 20 sec, TissueLyser, Quiagen).
The crude homogenate samples of rat frontal cortex were used to measure H3 receptor binding as described above with [^3H]—N-α-methylhistamine as radioligand. The protein concentration of each sample was determined by Pierce BCA Protein Assay Kit (Thermo).
The cortical homogenate was added to a 96-well plate containing [^3H]—N-α-methylhistamine (0.1 nM), in a volume of 0.2 ml (final protein concentration 4 μg/μl), incubated at 28° C. for 15 min and the reaction was stopped by rapid filtration using a filtration plate (Millipore multiscreen GF/B plate). The filters were washed three times with ice-cold wash buffer (50 mM Tris, pH 7.5) and 250 μl of Microscint-40 were added followed by determination of the bound radiolabel with a Wallac Microbeta Trilux 2450 (Perkin Elmer). Nonspecific binding was determined in the presence of 10 μM thioperamide. Each data point was obtained from a total of at least four animals. The inhibition of specific [^3H]NAMH binding, calculated as relative to vehicle-treated samples, was determined to provide an indication of receptor occupancy by the compound. The dose-dependent % RO and time course were analyzed using GraphPad Prism. The dose response was fit using GraphPad Prism: log(inhibitor) vs. response with variable slope.

Consider `Cn1nc(N2CCC(OC(=O)N3CCN(C4CCC4)CC3)CC2)ccc1=O` [Compound (I), 1-(1-methyl-6-oxo-1,6-dihydropyridazin-3-yl)piperidin-4-yl 4-cyclobutylpiperazine-1-carboxylate], for which the RO is 95% (1 h time point (initial RO)); 50% (4 h); 39% (4 h, listed as LML134); 0% (8 h); “almost not RO was detectable” (8 h, listed as LML134). Moreover, under “oral dosing, 1 h after compound administration”, the “dose that resulted in H3 receptor occupancy of 80-90%” value stood at 10 mg/kg.
